Experimental data as given in US5262440A, “Antitumor compositions and methods of treatment” (Eli Lilly and Company, priority 1991, dated 1993).

Tests used:
[1] = metabolite of sulofenur; cited from earlier work
[2] = metabolite of sulofenur; cited from earlier work; remark: listed apart in the source
[3] = all species (mice, rats, dogs, monkeys); cited from earlier work
[4] = phase I clinical studies; cited from earlier work
[5] = test system: 6C3HED lymphosarcoma (Gardner lymphosarcoma, GLS); experiment: Percent inhibition of tumor growth in C3H mice bearing 6C3HED lymphosarcoma (Gardner lymphosarcoma, GLS), oral; format: in vivo; settings: oral gavage, daily for 8 days
Experimental: (§1) The compounds were tested in C3H mice bearing a 6C3HED lymphosarcoma, also known as the Gardner lymphosarcoma (GLS). The 6C3HED lymphosarcoma was obtained from the Division of Cancer Treatment, National Cancer Institute, Tumor Bank, maintained at E. G. and G. Mason Research (Worcester, Mass.). First passage tumor was stored in liquid nitrogen using standard techniques. The transplanted tumor was reestablished from the Tumor Bank every six months or as needed. The tumor was maintained by serial passage twice weekly in C3H mice.
In the procedures utilized here, the tumor was removed from passage animals and minced into 1- to 3-mm cubic fragments using sterile techniques. Tumor pieces were checked for sterility using both Antibiotic Medium 1 and Brain Heart Infusion (Difco, Detroit, Mich.). Recipient mice were shaved and the tumor pieces were implanted subcutaneously in an axillary site by trochar.
(§2) Drug therapy on the appropriate schedule was initiated on the day after tumor implantation. The compound being tested was mixed with 2.5% Emulphor EL620 from GAF Corporation (1:40 dilution in 0.9% saline). The total dosage volume for each administration was 2.5 mL. All animals were weighed at the beginning and end of administration of the subject compounds. Food and water were provided ad libitum.
(§3) Each control group and each dosage level of the treated groups consisted of 10 mice selected at random from the pool of implanted animals. The compounds were administered orally by gavage with the use of an 18-gauge needle. Compounds were dosed daily for 8 days.
The tumor was measured the day after treatment ended with two dimensional measurements (width and length) of the tumor taken using Vernier calipers. Tumor weights were calculated from these measurements using the following formula:
Tumor weight (mg)=[tumor length (mm)×[tumor width (mm)]^2 ].div.2
At least one control group of an equal number of mice was treated with the same volume of 2.5% Emulphor only. The percent inhibition is determined by subtracting the ratio of the mean tumor size of the test group relative to the control group from one and multiplying the result by 100.
(§4) The results of several experiments in mice bearing a 6C3HED lymphosarcoma when the instant compounds were administered orally are provided in Table I. In the Table, column 1 gives the dose level of the compound mixture of Example 1, column 2 provides the percent inhibition of tumor growth, and column 3 gives the number of mice which died relative to the total number of animals in the group.

[6] = test system: C3H mice bearing a 6C3HED lymphosarcoma; experiment: Toxicity (mice which died relative to total number in group) in C3H mice bearing 6C3HED lymphosarcoma; format: in vivo; settings: oral gavage, daily for 8 days
Experimental: as §1, §2, §3, §4

O=C(Nc1ccc(Cl)cc1)NS(=O)(=O)c1ccc2c(c1)CCC2O (stereo not shown) [N-(1-hydroxyindan-5-sulfonyl)-N'-(4-chlorophenyl)urea]
retention in humans compared with other species tested [1]: retained longer in humans than in the other species tested
contribution of metabolite to adverse effects [2]: contribute to the adverse effects
therapeutic activity of metabolite [2]: therapeutically inactive

O=C(Nc1ccc(Cl)cc1)NS(=O)(=O)c1ccc2c(c1)CCC2=O [N-(1-ketoindan-5-sulfonyl)-N'-(4-chlorophenyl)urea]
retention in humans compared with other species tested [1]: retained longer in humans than in the other species tested
contribution of metabolite to adverse effects [2]: contribute to the adverse effects
therapeutic activity of metabolite [2]: therapeutically inactive

O=C(Nc1ccc(Cl)cc1)NS(=O)(=O)c1ccc2c(c1)CCC2 [sulofenur, N-(indan-5-sulfonyl)-N'-(4-chlorophenyl)urea]
adsorption [3]: good adsorption
metabolism (extent) [3]: extensive metabolism
major metabolites in patients [4]: 1-hydroxy- and 1-ketoindansulfonylureas

N-[[(4-chlorophenyl)amino]carbonyl]-indene-5-sulfonamide (A) and N-[[(4-chlorophenyl)amino]carbonyl]-indene-6-sulfonamide (B) [Example 1]
Percent Inhibition (of tumor growth) ([5]; dosage 25.0 (unit not given)): 16%
Percent Inhibition (of tumor growth) ([5]; dosage 50.0 (unit not given)): 36%
Percent Inhibition (of tumor growth) ([5]; dosage 100.0 (unit not given)): 77%
Percent Inhibition (of tumor growth) ([5]; dosage 150.0 (unit not given)): 100%
Percent Inhibition (of tumor growth) ([5]; dosage 300.0 (unit not given)): 100%
Toxic/Total (mice which died relative to total number of animals in the group) ([6]; dosage 25.0 (unit not given)): 0/10
Toxic/Total (mice which died relative to total number of animals in the group) ([6]; dosage 50.0 (unit not given)): 0/10
Toxic/Total (mice which died relative to total number of animals in the group) ([6]; dosage 100.0 (unit not given)): 0/10
Toxic/Total (mice which died relative to total number of animals in the group) ([6]; dosage 150.0 (unit not given)): 0/10
Toxic/Total (mice which died relative to total number of animals in the group) ([6]; dosage 300.0 (unit not given)): 0/10
